In patent US12116388B2, “Amylin receptor agonists” (Novo Nordisk A/S, priority 2022, dated 2024):
Starred links: 1 amine or outer side, 2 acyl side, 3 side chain; linkers in the order of their positions; H or OH if unused. Residues, ends and D or L forms follow the SMILES beside them. *: point of attachment. C18 diacid = O=C(O)CCCCCCCCCCCCCCCCC(=O)*; γGlu = O=C(O)[C@H](CCC(=O)[*:2])N[*:1]

Each compound was assayed against T1, human calcitonin receptor (hCTR) (Homo sapiens, UniProt P30988) (assay: Human calcitonin receptor (hCTR) in vitro potency assay, CRE-luciferase reporter in BHK cells). Conditions: BHK hCTR/CRE-Luc cells, 3 hours incubation, assay buffer with 1% ovalbumin; read-out: hCalcR potency, EC50.
T1 construct: host or cells: BHK (Baby Hamster Kidney), Hollex-1 cell line
T1 sequence (P30988 25-474): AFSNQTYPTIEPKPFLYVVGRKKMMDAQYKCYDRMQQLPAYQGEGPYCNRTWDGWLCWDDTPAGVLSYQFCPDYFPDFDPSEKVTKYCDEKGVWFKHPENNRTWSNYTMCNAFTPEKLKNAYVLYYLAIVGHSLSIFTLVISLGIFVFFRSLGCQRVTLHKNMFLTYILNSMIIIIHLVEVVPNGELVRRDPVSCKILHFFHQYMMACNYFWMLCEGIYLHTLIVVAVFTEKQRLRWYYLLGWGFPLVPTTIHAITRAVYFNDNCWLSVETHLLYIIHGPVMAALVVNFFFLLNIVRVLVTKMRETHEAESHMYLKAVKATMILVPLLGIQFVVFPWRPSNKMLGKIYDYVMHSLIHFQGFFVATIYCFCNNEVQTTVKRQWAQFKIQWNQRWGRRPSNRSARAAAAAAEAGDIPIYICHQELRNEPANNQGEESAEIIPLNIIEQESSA
Type: cell-based
Method in brief: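 Luciferase signal from a CRE reporter served as the cAMP read-out after 3 h, 37 °C exposure to compound. Cells were stably transfected BHK expressing hCTR, and the buffer was phenol-red-free DMEM with 10 mM HEPES and 1% ovalbumin. Compounds were tested as 7-point, 7-fold dilutions, often from about 10 nM.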

Row | Structure (SMILES) | EC50
1 | CC[C@H](C)[C@H](NC(=O)[C@H](C)NC(=O)CNC(=O)[C@H](Cc1ccccc1)NC(=O)[C@@H]1CCCN1C(=O)[C@H](CC(=O)O)NC(=O)[C@H](CO)NC(=O)[C@H](CO)NC(=O)[C@H](Cc1c[nH]cn1)NC(=O)[C@H](Cc1c[nH]cn1)NC(=O)[C@H](CC(C)C)NC(=O)[C@H](Cc1ccccc1)NC(=O)[C@H](CCC(=O)O)NC(=O)[C@H](C)NC(=O)[C@H](CC(C)C)NC(=O)[C@H](CCCNC(=N)N)NC(=O)[C@H](CCC(N)=O)NC(=O)[C@@H](NC(=O)[C@H](CCC(N)=O)NC(=O)[C@H](C)NC(=O)[C@@H](NC(=O)[C@H](CO)NC(=O)[C@H](CC(C)C)NC(=O)[C@H](CO)NC(=O)CNC(=O)[C@H](C)NC(=O)CC[C@H](NC(=O)CCCCCCCCCCCCCCCCC(=O)O)C(=O)O)[C@@H](C)O)[C@@H](C)O)C(=O)N1CCC[C@H]1C(=O)N[C@@H](CO)C(=O)N[C@@H](CO)C(=O)N[C@H](C(=O)N[C@@H](CC(=O)O)C(=O)N[C@H](C(=O)NCC(=O)N1CCC[C@H]1C(=O)N[C@@H](CC(=O)O)C(=O)N[C@H](C(=O)N1CCC[C@H]1C(N)=O)[C@@H](C)O)C(C)C)[C@@H](C)O [Compound 10, N^1-[(4S)-4-carboxy-4-(17-carboxyheptadecanoylamino)butanoyl]-[Ala1,Gly2,Ser3,Leu4,Ser5,Ala7,Gln8,Glu14,His17,Asp21,Pro22,Pro27,Asp31,Pro34,Asp35,Pro37]-human amylin] ({C18 diacid-γGlu}-AGSLSTAQTQRLAEFLHHSSDPFGAIPSSTDVGPDTP-NH2) | 1.49 pM
2 | CC[C@H](C)[C@H](NC(=O)[C@H](C)NC(=O)CNC(=O)[C@H](Cc1ccccc1)NC(=O)[C@@H]1CCCN1C(=O)[C@H](CC(=O)O)NC(=O)[C@H](CO)NC(=O)[C@H](CO)NC(=O)[C@H](Cc1c[nH]cn1)NC(=O)[C@H](Cc1c[nH]cn1)NC(=O)[C@H](CC(C)C)NC(=O)[C@H](Cc1ccccc1)NC(=O)[C@H](CCC(=O)O)NC(=O)[C@H](C)NC(=O)[C@H](CC(C)C)NC(=O)[C@H](CCCNC(=N)N)NC(=O)[C@H](C)NC(=O)[C@@H](NC(=O)[C@H](CCC(N)=O)NC(=O)[C@H](C)NC(=O)[C@@H](NC(=O)[C@H](CO)NC(=O)[C@H](CC(C)C)NC(=O)[C@H](Cc1c[nH]cn1)NC(=O)[C@H](CO)NC(=O)[C@H](C)NC(=O)CC[C@H](NC(=O)CCCCCCCCCCCCCCCCC(=O)O)C(=O)O)[C@@H](C)O)[C@@H](C)O)C(=O)N1CCC[C@H]1C(=O)N[C@@H](CO)C(=O)N[C@@H](CO)C(=O)N[C@H](C(=O)N[C@@H](CC(=O)O)C(=O)N[C@H](C(=O)NCC(=O)N1CCC[C@H]1C(=O)N[C@@H](CC(=O)O)C(=O)N[C@H](C(=O)N1CCC[C@H]1C(N)=O)[C@@H](C)O)C(C)C)[C@@H](C)O [Compound 25, N^1-[(4S)-4-carboxy-4-(17-carboxyheptadecanoylamino)butanoyl]-[Ala1,Ser2,His3,Leu4,Ser5,Ala7,Gln8,Ala10,Glu14,His17,Asp21,Pro22,Pro27,Asp31,Pro34,Asp35,Pro37]-human amylin] ({C18 diacid-γGlu}-ASHLSTAQTARLAEFLHHSSDPFGAIPSSTDVGPDTP-NH2) | 1.5 pM
3 | CC[C@H](C)[C@H](NC(=O)[C@@H]1CCCN1C(=O)CNC(=O)[C@H](Cc1ccccc1)NC(=O)[C@H](Cc1c[nH]cn1)NC(=O)[C@H](Cc1c[nH]cn1)NC(=O)[C@H](CC(C)C)NC(=O)[C@H](Cc1ccccc1)NC(=O)[C@H](CCC(=O)O)NC(=O)[C@H](C)NC(=O)[C@H](CC(C)C)NC(=O)[C@H](CCCNC(=N)N)NC(=O)[C@H](C)NC(=O)[C@@H](NC(=O)[C@H](CCC(N)=O)NC(=O)[C@H](C)NC(=O)[C@@H](NC(=O)[C@H](CO)NC(=O)[C@H](CC(C)C)NC(=O)[C@H](Cc1c[nH]cn1)NC(=O)[C@H](CO)NC(=O)[C@H](C)NC(=O)CC[C@H](NC(=O)CC[C@H](NC(=O)CCCCCCCCCCCCCCCCC(=O)O)C(=O)O)C(=O)O)[C@@H](C)O)[C@@H](C)O)C(=O)N[C@@H](CC(C)C)C(=O)N1CCC[C@H]1C(=O)N1CCC[C@H]1C(=O)N[C@H](C(=O)N[C@@H](CC(=O)O)C(=O)N[C@H](C(=O)NCC(=O)N[C@@H](CO)C(=O)N[C@@H](CCC(=O)O)C(=O)N[C@H](C(=O)N1CCC[C@H]1C(N)=O)[C@@H](C)O)C(C)C)[C@@H](C)O [Compound 17, N^1-[(4S)-4-carboxy-4-[[(4S)-4-carboxy-4-(17-carboxyheptadecanoylamino)butanoyl]amino]butanoyl]-[Ala1,Ser2,His3,Leu4,Ser5,Ala7,Gln8,Ala10,Glu14,His17,Pro25,Pro28,Pro29,Asp31,Glu35,Pro37],des-(19-22)-human amylin] ({C18 diacid-γGlu-γGlu}-ASHLSTAQTARLAEFLHHFGPILPPTDVGSETP-NH2) | 1.15 pM
4 | CC[C@H](C)[C@H](NC(=O)[C@@H]1CCCN1C(=O)CNC(=O)[C@H](Cc1ccccc1)NC(=O)[C@H](CC(N)=O)NC(=O)[C@H](CC(=O)O)NC(=O)[C@H](CO)NC(=O)[C@H](CO)NC(=O)[C@H](Cc1c[nH]cn1)NC(=O)[C@H](Cc1c[nH]cn1)NC(=O)[C@H](CC(C)C)NC(=O)[C@H](Cc1ccccc1)NC(=O)[C@H](CCC(=O)O)NC(=O)[C@H](C)NC(=O)[C@H](CC(C)C)NC(=O)[C@H](CCCNC(=N)N)NC(=O)[C@H](C)NC(=O)[C@@H](NC(=O)[C@H](CCC(N)=O)NC(=O)[C@H](C)NC(=O)[C@@H](NC(=O)[C@H](CO)NC(=O)[C@H](CC(C)C)NC(=O)[C@H](Cc1c[nH]cn1)NC(=O)[C@H](CO)NC(=O)[C@H](C)NC(=O)CC[C@H](NC(=O)CCCCCCCCCCCCCCCCC(=O)O)C(=O)O)[C@@H](C)O)[C@@H](C)O)C(=O)N[C@@H](CC(C)C)C(=O)N1CCC[C@H]1C(=O)N1CCC[C@H]1C(=O)N[C@H](C(=O)N[C@@H](CC(=O)O)C(=O)N[C@H](C(=O)NCC(=O)N[C@@H](CO)C(=O)N[C@@H](CC(N)=O)C(=O)N[C@H](C(=O)N1CCC[C@H]1C(N)=O)[C@@H](C)O)C(C)C)[C@@H](C)O [Compound 14, N^1-[(4S)-4-carboxy-4-(17-carboxyheptadecanoylamino)butanoyl]-[Ala1,Ser2,His3,Leu4,Ser5,Ala7,Gln8,Ala10,Glu14,His17,Asp21,Pro25,Pro28,Pro29,Asp31,Pro37]-human amylin] ({C18 diacid-γGlu}-ASHLSTAQTARLAEFLHHSSDNFGPILPPTDVGSNTP-NH2) | 1.63 pM
5 | CC[C@H](C)[C@H](NC(=O)[C@H](C)NC(=O)CNC(=O)[C@H](Cc1ccccc1)NC(=O)[C@@H]1CCCN1C(=O)[C@H](CC(=O)O)NC(=O)[C@H](CO)NC(=O)[C@H](CO)NC(=O)[C@H](Cc1c[nH]cn1)NC(=O)[C@H](Cc1c[nH]cn1)NC(=O)[C@H](CC(C)C)NC(=O)[C@H](Cc1ccccc1)NC(=O)[C@H](CCC(=O)O)NC(=O)[C@H](C)NC(=O)[C@H](CC(C)C)NC(=O)[C@H](CCCNC(=N)N)NC(=O)[C@H](CCC(N)=O)NC(=O)[C@@H](NC(=O)[C@H](CCC(N)=O)NC(=O)[C@H](C)NC(=O)[C@@H](NC(=O)[C@H](CO)NC(=O)[C@H](CC(C)C)NC(=O)[C@H](Cc1c[nH]cn1)NC(=O)[C@H](CO)NC(=O)[C@H](C)NC(=O)CC[C@H](NC(=O)CCCCCCCCCCCCCCCCC(=O)O)C(=O)O)[C@@H](C)O)[C@@H](C)O)C(=O)N1CCC[C@H]1C(=O)N[C@@H](CO)C(=O)N[C@@H](CO)C(=O)N[C@H](C(=O)N[C@@H](CC(=O)O)C(=O)N[C@H](C(=O)NCC(=O)N1CCC[C@H]1C(=O)N[C@@H](CC(=O)O)C(=O)N[C@H](C(=O)N1CCC[C@H]1C(N)=O)[C@@H](C)O)C(C)C)[C@@H](C)O [Compound 8, N^1-[(4S)-4-carboxy-4-(17-carboxyheptadecanoylamino)butanoyl]-[Ala1,Ser2,His3,Leu4,Ser5,Ala7,Gln8,Glu14,His17,Asp21,Pro22,Pro27,Asp31,Pro34,Asp35,Pro37]-human amylin] ({C18 diacid-γGlu}-ASHLSTAQTQRLAEFLHHSSDPFGAIPSSTDVGPDTP-NH2) | 1.44 pM
